According to ChEMBL document CHEMBL5233287, “In Vitro Hypoglycemic Diterpenoids from the Roots of Croton yunnanensis” (J Nat Prod, 2023):
Calls of active or inactive are those of the source. The rule behind the calls is not given here.

Key:
3T3-L1 [1] = experiment: Hypoglycemic activity in insulin-resistant mouse 3T3-L1 cells assessed as increase in 2-deoxyglucose uptake treated with compound for 10 mins followed by 2-deoxyglucose challenge for 30 mins by liquid scintillation counting analysis; format: functional, cell-based; conditions: time 40.0 min
3T3-L1 [2] = experiment: Insulin sensitizing activity in mouse 3T3-L1 cells assessed as increase in 2-deoxyglucose uptake at 5 to 20 uM treated with compound and insulin for 10 mins followed by 2-deoxyglucose challenge for 30 mins by liquid scintillation counting analysis; format: functional, cell-based; conditions: dose 5-20 µM, time 40.0 min

| SMILES | Activity (3T3-L1 [1]) | Activity (3T3-L1 [2]) |
| --- | --- | --- |
| COC(=O)C1=CCC[C@H]2[C@@]13CC[C@@H](C)[C@]21C[C@@H](C2=CC(=O)O[C@H]2OC)O[C@@H]1O[C@@H]3OC | Active |  |
| COC(=O)C1=CCC[C@@H]2[C@]34C[C@@H](c5ccoc5)O[C@@H]3O[C@]12CC[C@H]4C | Active |  |
| COC(=O)C1=CCC[C@@H]2[C@]34C[C@@H](C5=CC(=O)O[C@H]5OC)O[C@@H]3O[C@]12CC[C@H]4C | Active | Active |
| COC(=O)C1=CCC[C@H]2[C@@]13CC[C@@H](C)[C@]21C[C@@H](C2=C[C@@H](OC)OC2=O)O[C@@H]1OC3=O | Active |  |
| C=C1CC[C@]23[C@@H](OC(=O)c4ccccc4)O[C@H]4O[C@H](c5ccoc5)C[C@]14[C@H]2CCC(=O)[C@@]3(O)C(=O)OC | Active | Active |
| COC(=O)C1=CCC[C@@H]2[C@]34C[C@@H](C5=C[C@@H](OC)OC5=O)O[C@@H]3O[C@]12CC[C@H]4C | Active |  |
| COC(=O)[C@H]1C=CC[C@H]2[C@@]13CC[C@@H](C)[C@]21C[C@@H](C2=CC(=O)O[C@H]2OC)O[C@@H]1O3 | Active |  |
